Experimental data taken from PMC3081901 (Bioorganic & medicinal chemistry letters, 2010).

Molecular target: T1, human A1 AR (Homo sapiens, UniProt P30542)
T1 sequence (P30542 1-326): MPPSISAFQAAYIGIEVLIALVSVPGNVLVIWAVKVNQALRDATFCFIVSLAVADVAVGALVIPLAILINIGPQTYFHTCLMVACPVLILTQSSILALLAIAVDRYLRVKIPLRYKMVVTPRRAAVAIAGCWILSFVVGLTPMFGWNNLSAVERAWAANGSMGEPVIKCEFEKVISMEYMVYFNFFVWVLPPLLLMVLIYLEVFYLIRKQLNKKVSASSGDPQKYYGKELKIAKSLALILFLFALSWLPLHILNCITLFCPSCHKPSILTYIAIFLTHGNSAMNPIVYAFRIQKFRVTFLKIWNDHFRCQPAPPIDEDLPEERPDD
Assay: Competition radioligand binding, human A1 AR

Ki: 4.18 ± 0.92 µM
SMILES: Nc1nc2c(cnn2CCCc2ccc(OCC(=O)NCCNCCNC(=O)CCCCCNC(=O)COc3ccc(/C=C/C4=[N+]5C(=Cc6ccc(-c7ccc[nH]7)n6[B-]5(F)F)C=C4)cc3)cc2)c2nc(-c3ccco3)nn12 [Compound 14]
